This note sets out measurements from US20230390235A1, “THERAPEUTIC AGENT FOR COVID-19” (priority 2020, published 2023).

Molecules are shown by their SMILES.

Test [1] deals with SARS-CoV-2 S pseudotype virus N501Y mutant strain. The class given is cell-based.
In test [2] the test system is SARS-CoV-2 S pseudotype virus B.1.429 mutant strain (ε strain). Type of test: cell-based. Conditions: ε mutant strain (B.1.429); 100 μM; ACE2-expressing HEK293T cells; GFP fluorescence; FIG. 1.

For `COCCOCCOC(=O)N[C@@H](CC(C)C)C(=O)N[C@@H](Cc1ccccc1)C(=O)C(=O)NC1CC1` [SNJ-1945], the “entry inhibition of pseudotype virus into cells” value in test [1] and in test [2] was “inhibits entry” each time.
